# Data as given in the RepoRT retention time repository.
# Assay: A: acetonitrile + 0.1% formic acid + 10 mM ammonium formate; B: 5% water + 95% acetonitrile + 0.1% formic acid + 10 mM ammonium formate; gradient (min/%B) 0/10 2/10 22/100 27/100 27.1/10
# Conditions: stereoisomer not certain
row,LC retention time [min],Compound
1,0.484,COc1ccc2nc(S(=O)Cc3ncc(C)c(OC)c3C)[nH]c2c1 (stereo not given) [Omeprazole]
2,7.71,NCCCC(N)C(=O)O (stereo not given) [Ornithine]
3,2.47,CCOC(=O)C1=CC(OC(CC)CC)C(NC(C)=O)C(N)C1 (stereo not given) [Oseltamivir]
4,1.88,O=c1[nH]c(=O)c2cn[nH]c2[nH]1 [Oxipurinol]
5,0.847,CCN(CC)CC#CCOC(=O)C(O)(c1ccccc1)C1CCCCC1 (stereo not given) [Oxybutynin]
6,1.19,Fc1ccc(C2CCNCC2COc2ccc3c(c2)OCO3)cc1 (stereo not given) [Paroxetine]
7,4.51,Nc1nc2c(ncn2CCC(CO)CO)c(=O)[nH]1 [Penciclovir]
8,0.553,CCCC(NC(C)C(=O)N1C(C(=O)O)CC2CCCCC21)C(=O)OCC (stereo not given) [Perindopril erbumine]
9,1.55,OCCN1CCN(CCCN2c3ccccc3Sc3ccc(Cl)cc32)CC1 [Perphenazine]
10,3.83,NC(=O)CCC(NC(=O)Cc1ccccc1)C(=O)O (stereo not given) [Phenyl-Ac-Gln-OH]
11,1.25,O=C(CCc1ccc(O)cc1)c1c(O)cc(O)cc1OC1OC(CO)C(O)C(O)C1O (stereo not given) [Phloridzin]
12,7.08,C=C(OP(=O)(O)O)C(=O)O [Phospho(enol)pyruvic Acid]
13,7.9,NC(COP(=O)(O)O)C(=O)O (stereo not given) [Phosphoserine]
14,0.963,O=C(O)c1ccccc1C(=O)O [Phthalic acid]
15,1.22,CCC1C(=O)OCC1Cc1cncn1C (stereo not given) [Pilocarpine]
16,0.909,O=C(O)CCCCCC(=O)O [Pimelic acid]
17,0.47,CCc1ccc(CCOc2ccc(CC3SC(=O)NC3=O)cc2)nc1 (stereo not given) [Pioglitazone]
18,0.44,O=C(C=CC=Cc1ccc2c(c1)OCO2)N1CCCCC1 [Piperine]
19,0.44,CN1C(C(=O)Nc2ccccn2)=C(O)c2ccccc2S1(=O)=O [Piroxicam]
20,2.3,CCN(CC)CCNC(=O)c1ccc(N)cc1 [Procainamide]

row,LC retention time [min],Compound
1,0.425,CC(=O)C1CCC2C3CCC4=CC(=O)CCC4(C)C3CCC12C (stereo not given) [Progesterone]
2,0.952,CC(CN1c2ccccc2Sc2ccccc21)N(C)C (stereo not given) [Promethazine]
3,0.478,CCCOC(=O)c1cc(O)c(O)c(O)c1 [Propyl gallate]
4,1.01,c1ncc2[nH]cnc2n1 [Purine]
5,5.97,Cc1ncc(COP(=O)(O)O)c(C=O)c1O [Pyridoxal 5'-phosphate]
6,0.981,Cc1ncc(CO)c(C=O)c1O [Pyridoxal]
7,6.5,Cc1ncc(CO)c(CN)c1O [Pyridoxamine]
8,1.92,Cc1ncc(CO)c(CO)c1O [Pyridoxine]
9,0.592,O=c1c(O)c(-c2ccc(O)c(O)c2)oc2cc(O)cc(O)c12 [Quercetin]
10,3.99,CCN(CC)CCCC(C)Nc1c2ccc(Cl)cc2nc2ccc(OC)cc12 (stereo not given) [Quinacrine]
11,1.48,O=C(O)c1ccc2ccccc2n1 [Quinaldic acid]
12,1.42,O=C(c1ccc(OCCN2CCCCC2)cc1)c1c(-c2ccc(O)cc2)sc2cc(O)ccc12 [Raloxifene]
13,3.12,CNC(=C[N+](=O)[O-])NCCSCc1ccc(CN(C)C)o1 [Ranitidine]
14,0.769,COC(=O)C1C2CC3c4[nH]c5cc(OC)ccc5c4CCN3CC2CC(OC(=O)c2cc(OC)c(OC)c(OC)c2)C1OC (stereo not given) [Reserpine]
15,0.433,CC(C=CC1=C(C)CCCC1(C)C)=CC=CC(C)=CC(=O)O [Retinoic Acid]
16,0.776,CCN(CC)c1ccc2c(-c3ccccc3C(=O)[O-])c3ccc(=[N+](CC)CC)cc-3oc2c1 [Rhodamine B]
17,3.11,NC(=O)c1ncn(C2OC(CO)C(O)C2O)n1 (stereo not given) [Ribavirin]
18,6.38,Cc1cc2nc3c(=O)[nH]c(=O)nc-3n(CC(O)C(O)C(O)COP(=O)(O)O)c2cc1C (stereo not given) [Riboflavin 5'-Monophosphate]
19,3.65,Cc1cc2nc3c(=O)[nH]c(=O)nc-3n(CC(O)C(O)C(O)CO)c2cc1C (stereo not given) [Riboflavin]
20,2.42,Cc1nc2n(c(=O)c1CCN1CCC(c3noc4cc(F)ccc34)CC1)CCCC2 [Risperidone]

row,LC retention time [min],Compound
1,4.42,CC1OC(OCC2OC(Oc3c(-c4ccc(O)c(O)c4)oc4cc(O)cc(O)c4c3=O)C(O)C(O)C2O)C(O)C(O)C1O (stereo not given) [Rutin]
2,8.08,C[S+](CC[C@H](N)C(=O)[O-])C[C@H]1O[C@@H](n2cnc3c(N)ncnc32)[C@H](O)[C@@H]1O (stereo partly drawn) [S-(5'-Adenosyl)-L-methionine]
3,3.16,CC(C)(C)NCC(O)c1ccc(O)c(CO)c1 (stereo not given) [Salbutamol]
4,0.448,NC(=O)c1ccccc1O [Salicylamide]
5,0.474,COc1cc(C2Oc3cc(C4Oc5cc(O)cc(O)c5C(=O)C4O)ccc3OC2CO)ccc1O (stereo not given) [Silibinin]
6,0.561,COc1cc(C=CC(=O)O)cc(OC)c1O [Sinapic acid]
7,0.486,CC=CC=CC(=O)O [Sorbic acid]
8,9.6,NCCCNCCCCNCCCN [Spermine]
9,4.85,C=C1CC23CCC4C(C)(C(=O)OC5OC(CO)C(O)C(O)C5O)CCCC4(C)C2CCC1(OC1OC(CO)C(O)C(O)C1OC1OC(CO)C(O)C(O)C1O)C3 (stereo not given) [Stevioside]
10,0.712,O=C(O)CCCCCCC(=O)O [Suberic acid]
11,5.46,O=C(O)CCCCCCC(=O)NCC(=O)O [Suberyl Glycine]
12,6.27,OCC1OC(OC2(CO)OC(CO)C(O)C2O)C(O)C(O)C1O (stereo not given) [Sucrose]
13,0.449,Cc1noc(NS(=O)(=O)c2ccc(N)cc2)c1C [Sulfisoxazole]
14,0.56,CC1=C(CC(=O)O)c2cc(F)ccc2C1=Cc1ccc(S(C)=O)cc1 (stereo not given) [Sulindac]
15,0.457,CN1CC(=O)N2C(Cc3c([nH]c4ccccc34)C2c2ccc3c(c2)OCO3)C1=O (stereo not given) [Tadalafil]
16,0.887,CCC(=C(c1ccccc1)c1ccc(OCCN(C)C)cc1)c1ccccc1 [Tamoxifen]
17,5.82,NCCS(=O)(=O)O [Taurine]
18,2.71,CC(CCC(=O)NCCS(=O)(=O)O)C1CCC2C3CCC4CC(O)CCC4(C)C3CC(O)C12C (stereo not given) [Taurodeoxycholic acid]
19,2.7,CC(CCC(=O)NCCS(=O)(=O)O)C1CCC2C3C(O)CC4CC(O)CCC4(C)C3CCC12C (stereo not given) [Tauroursodeoxycholic acid]
20,0.687,Cn1cnc2c1c(=O)[nH]c(=O)n2C [Theobromine]

row,Compound,LC retention time [min]
1,NCC(O)c1ccc(O)cc1 (stereo not given) [Octopamine],3.85
2,O=C(O)C(c1ccccc1)C1CCCCN1 (stereo not given) [Ritalinic Acid],3.41
3,C=C(C)C1Cc2c(ccc3c2OC2COc4cc(OC)c(OC)cc4C2C3=O)O1 (stereo not given) [Rotenone],0.416
4,NCCc1c[nH]c2ccc(O)cc12 [Serotonin],3.29
5,CNCC(O)c1ccc(O)cc1 (stereo not given) [Synephrine],3.2
